Reference: patent US7851474B2, “Dipiperazinyl ketones and related analogues” (Neurogen Corporation, priority 2005, dated 2010)
pKi: −log10 of the molar value.

target: T1, chimeric human H3 receptor (Homo sapiens, UniProt Q9Y5N1, E19D); test: Chimeric human H3 receptor GTP binding assay (agonist-stimulated GTP-gamma35S binding, Example 7); type: biochemical; conditions: Table II; assay of Example 7; "*" in Ki; read-out: Ki
T1 construct: made in house; host or cells: Sf9 insect cells (baculovirus infection); P2 membrane preparation
Outline: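 IC50 values come from non-linear regression of dose-response curves of filter-bound GTP-gamma^35S, counted by scintillation. Membranes were from infected Sf9 cells carrying receptor plus G-protein subunits, 35 μg/tube, with 10 μM GDP present.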

T1 sequence (Q9Y5N1 with tags, fused parts or gaps E19D): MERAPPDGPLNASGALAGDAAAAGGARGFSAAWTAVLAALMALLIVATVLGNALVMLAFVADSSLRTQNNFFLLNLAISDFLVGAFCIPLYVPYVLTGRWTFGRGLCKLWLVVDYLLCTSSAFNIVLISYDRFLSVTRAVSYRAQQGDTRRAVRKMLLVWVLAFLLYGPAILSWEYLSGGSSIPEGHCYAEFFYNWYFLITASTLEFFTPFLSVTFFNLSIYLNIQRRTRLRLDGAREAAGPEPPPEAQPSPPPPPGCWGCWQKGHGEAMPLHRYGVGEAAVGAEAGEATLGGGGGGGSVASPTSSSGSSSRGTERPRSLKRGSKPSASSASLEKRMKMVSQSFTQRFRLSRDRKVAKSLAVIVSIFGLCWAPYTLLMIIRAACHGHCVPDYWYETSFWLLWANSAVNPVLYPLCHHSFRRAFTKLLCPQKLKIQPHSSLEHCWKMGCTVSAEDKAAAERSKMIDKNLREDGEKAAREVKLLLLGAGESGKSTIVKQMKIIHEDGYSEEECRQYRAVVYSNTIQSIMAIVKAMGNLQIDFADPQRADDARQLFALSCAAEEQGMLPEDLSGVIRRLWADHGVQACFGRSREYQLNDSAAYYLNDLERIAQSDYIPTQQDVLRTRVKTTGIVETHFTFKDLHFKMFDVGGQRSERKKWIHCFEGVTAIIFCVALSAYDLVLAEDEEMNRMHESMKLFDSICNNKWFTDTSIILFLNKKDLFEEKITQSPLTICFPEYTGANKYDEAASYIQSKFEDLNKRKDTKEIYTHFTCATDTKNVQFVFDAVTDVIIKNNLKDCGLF

| pKi | Compound |
| --- | --- |
| > 6.00 | N#Cc1cccc(-c2cnc(N3CCN(CC(=O)N4CCN(C5CCC5)CC4)CC3)cn2)c1 [Compound 994, 3-(5-{4-[2-(4-cyclobutylpiperazin-1-yl)-2-oxoethyl]piperazin-1-yl}pyrazin-2-yl)benzonitrile] |
| > 6.00 | COc1ccc(Cl)cc1-c1ccc(N2CCN(CC(=O)N3CCN(C4CCC4)CC3)CC2)nn1 [Compound 995, 3-(5-chloro-2-methoxyphenyl)-6-{4-[2-(4-cyclobutylpiperazin-1-yl)-2-oxoethyl]piperazin-1-yl}pyridazine] |
| > 6.00 | CN(C)c1cccc(-c2ccc(N3CCN(CC(=O)N4CCN(C5CCC5)CC4)CC3)nn2)c1 [Compound 996, 3-(6-{4-[2-(4-cyclobutylpiperazin-1-yl)-2-oxoethyl]piperazin-1-yl}pyridazin-3-yl)-N,N-dimethylaniline] |
| > 6.00 | N#Cc1cccc(-c2ccc(N3CCN(CC(=O)N4CCN(C5CCC5)CC4)CC3)nn2)c1 [Compound 997, 3-(6-{4-[2-(4-cyclobutylpiperazin-1-yl)-2-oxoethyl]piperazin-1-yl}pyridazin-3-yl)benzonitrile] |
| > 6.00 | O=C(CN1CCN(c2ccc(-c3cc(C(F)(F)F)cc(C(F)(F)F)c3)nn2)CC1)N1CCN(C2CCC2)CC1 [Compound 998, 3-[3,5-bis(trifluoromethyl)phenyl]-6-{4-[2-(4-cyclobutylpiperazin-1-yl)-2-oxoethyl]piperazin-1-yl}pyridazine] |
| > 6.00 | COc1ccc(N2CCN(CC(=O)N3CCN(C4CCC4)CC3)CC2)nn1 [Compound 999, 3-{4-[2-(4-cyclobutylpiperazin-1-yl)-2-oxoethyl]piperazin-1-yl}-6-methoxypyridazine] |
| > 6.00 | O=C(CN1CCN(c2ccc(-c3ccncc3)nn2)CC1)N1CCN(C2CCC2)CC1 [Compound 1000, 3-{4-[2-(4-cyclobutylpiperazin-1-yl)-2-oxoethyl]piperazin-1-yl}-6-pyridin-4-ylpyridazine] |
| > 6.00 | O=C(CN1CCN(c2ccc(-c3cncnc3)nn2)CC1)N1CCN(C2CCC2)CC1 [Compound 1001, 3-{4-[2-(4-cyclobutylpiperazin-1-yl)-2-oxoethyl]piperazin-1-yl}-6-pyrimidin-5-ylpyridazine] |
| > 6.00 | O=C(CN1CCN(c2ccc(-c3ccccc3)nn2)CC1)N1CCN(C2CCC2)CC1 [Compound 1002, 3-{4-[2-(4-cyclobutylpiperazin-1-yl)-2-oxoethyl]piperazin-1-yl}-6-phenylpyridazine] |
| > 6.00 | O=C(CN1CCN(c2ccc(-c3ccc(F)cc3)nn2)CC1)N1CCN(C2CCC2)CC1 [Compound 1003, 3-{4-[2-(4-cyclobutylpiperazin-1-yl)-2-oxoethyl]piperazin-1-yl}-6-(4-fluorophenyl)pyridazine] |
| > 6.00 | O=C(CN1CCN(c2ccc(-c3cccc(F)c3)nn2)CC1)N1CCN(C2CCC2)CC1 [Compound 1004, 3-{4-[2-(4-cyclobutylpiperazin-1-yl)-2-oxoethyl]piperazin-1-yl}-6-(3-fluorophenyl)pyridazine] |
| > 6.00 | O=C(CN1CCN(c2ccc(-c3ccccc3F)nn2)CC1)N1CCN(C2CCC2)CC1 [Compound 1005, 3-{4-[2-(4-cyclobutylpiperazin-1-yl)-2-oxoethyl]piperazin-1-yl}-6-(2-fluorophenyl)pyridazine] |
| > 6.00 | O=C(CN1CCN(c2ccc(-c3ccc4ccccc4c3)nn2)CC1)N1CCN(C2CCC2)CC1 [Compound 1006, 3-{4-[2-(4-cyclobutylpiperazin-1-yl)-2-oxoethyl]piperazin-1-yl}-6-(2-naphthyl)pyridazine] |
| > 6.00 | Cc1ccc(-c2ccc(N3CCN(CC(=O)N4CCN(C5CCC5)CC4)CC3)nn2)c(F)c1 [Compound 1007, 3-{4-[2-(4-cyclobutylpiperazin-1-yl)-2-oxoethyl]piperazin-1-yl}-6-(2-fluoro-4-methylphenyl)pyridazine] |
| > 6.00 | Cc1ccc(F)c(-c2ccc(N3CCN(CC(=O)N4CCN(C5CCC5)CC4)CC3)nn2)c1 [Compound 1008, 3-{4-[2-(4-cyclobutylpiperazin-1-yl)-2-oxoethyl]piperazin-1-yl}-6-(2-fluoro-5-methylphenyl)pyridazine] |
| > 6.00 | Cc1ccc(-c2ccc(N3CCN(CC(=O)N4CCN(C5CCC5)CC4)CC3)nn2)cc1F [Compound 1009, 3-{4-[2-(4-cyclobutylpiperazin-1-yl)-2-oxoethyl]piperazin-1-yl}-6-(3-fluoro-4-methylphenyl)pyridazine] |
| > 6.00 | Cc1cc(-c2ccc(N3CCN(CC(=O)N4CCN(C5CCC5)CC4)CC3)nn2)ccc1F [Compound 1010, 3-{4-[2-(4-cyclobutylpiperazin-1-yl)-2-oxoethyl]piperazin-1-yl}-6-(4-fluoro-3-methylphenyl)pyridazine] |
| > 6.00 | Cc1cccc(-c2ccc(N3CCN(CC(=O)N4CCN(C5CCC5)CC4)CC3)nn2)c1 [Compound 1011, 3-{4-[2-(4-cyclobutylpiperazin-1-yl)-2-oxoethyl]piperazin-1-yl}-6-(3-methylphenyl)pyridazine] |

| pKi | Compound |
| --- | --- |
| > 6.00 | Cc1ccc(-c2ccc(N3CCN(CC(=O)N4CCN(C5CCC5)CC4)CC3)nn2)cc1 [Compound 1012, 3-{4-[2-(4-cyclobutylpiperazin-1-yl)-2-oxoethyl]piperazin-1-yl}-6-(4-methylphenyl)pyridazine] |
| > 6.00 | CC(C)c1cccc(-c2ccc(N3CCN(CC(=O)N4CCN(C5CCC5)CC4)CC3)nn2)c1 [Compound 1013, 3-{4-[2-(4-cyclobutylpiperazin-1-yl)-2-oxoethyl]piperazin-1-yl}-6-(3-isopropylphenyl) pyridazine] |
| > 6.00 | CC(C)c1ccc(-c2ccc(N3CCN(CC(=O)N4CCN(C5CCC5)CC4)CC3)nn2)cc1 [Compound 1014, 3-{4-[2-(4-cyclobutylpiperazin-1-yl)-2-oxoethyl]piperazin-1-yl}-6-(4-isopropylphenyl) pyridazine] |
| > 6.00 | Cc1ccc(-c2ccc(N3CCN(CC(=O)N4CCN(C5CCC5)CC4)CC3)nn2)cc1C [Compound 1015, 3-{4-[2-(4-cyclobutylpiperazin-1-yl)-2-oxoethyl]piperazin-1-yl}-6-(3,4-dimethylphenyl) pyridazine] |
| > 6.00 | Cc1cc(C)cc(-c2ccc(N3CCN(CC(=O)N4CCN(C5CCC5)CC4)CC3)nn2)c1 [Compound 1016, 3-{4-[2-(4-cyclobutylpiperazin-1-yl)-2-oxoethyl]piperazin-1-yl}-6-(3,5-dimethylphenyl) pyridazine] |
| > 6.00 | CCc1ccc(-c2ccc(N3CCN(CC(=O)N4CCN(C5CCC5)CC4)CC3)nn2)cc1 [Compound 1017, 3-{4-[2-(4-cyclobutylpiperazin-1-yl)-2-oxoethyl]piperazin-1-yl}-6-(4-ethylphenyl)pyridazine] |
| > 6.00 | CCCc1ccc(-c2ccc(N3CCN(CC(=O)N4CCN(C5CCC5)CC4)CC3)nn2)cc1 [Compound 1018, 3-{4-[2-(4-cyclobutylpiperazin-1-yl)-2-oxoethyl]piperazin-1-yl}-6-(4-propylphenyl)pyridazine] |
| > 6.00 | CCc1cccc(-c2ccc(N3CCN(CC(=O)N4CCN(C5CCC5)CC4)CC3)nn2)c1 [Compound 1019, 3-{4-[2-(4-cyclobutylpiperazin-1-yl)-2-oxoethyl]piperazin-1-yl}-6-(3-ethylphenyl)pyridazine] |
| > 6.00 | COc1cccc(-c2ccc(N3CCN(CC(=O)N4CCN(C5CCC5)CC4)CC3)nn2)c1 [Compound 1020, 3-{4-[2-(4-cyclobutylpiperazin-1-yl)-2-oxoethyl]piperazin-1-yl}-6-(3-methoxyphenyl) pyridazine] |
| > 6.00 | O=C(CN1CCN(c2ccc(-c3ccc(OC(F)(F)F)cc3)nn2)CC1)N1CCN(C2CCC2)CC1 [Compound 1021, 3-{4-[2-(4-cyclobutylpiperazin-1-yl)-2-oxoethyl]piperazin-1-yl}-6-[4-(trifluoromethoxy)phenyl] pyridazine] |
| > 6.00 | CCOc1cccc(-c2ccc(N3CCN(CC(=O)N4CCN(C5CCC5)CC4)CC3)nn2)c1 [Compound 1022, 3-{4-[2-(4-cyclobutylpiperazin-1-yl)-2-oxoethyl]piperazin-1-yl}-6-(3-ethoxyphenyl)pyridazine] |
| > 6.00 | O=C(CN1CCN(c2ccc(-c3cccc(OC(F)(F)F)c3)nn2)CC1)N1CCN(C2CCC2)CC1 [Compound 1024, 3-{4-[2-(4-cyclobutylpiperazin-1-yl)-2-oxoethyl]piperazin-1-yl}-6-[3-(trifluoromethoxy)phenyl} pyridazine] |
| > 6.00 | CSc1cccc(-c2ccc(N3CCN(CC(=O)N4CCN(C5CCC5)CC4)CC3)nn2)c1 [Compound 1025, 3-{4-[2-(4-cyclobutylpiperazin-1-yl)-2-oxoethyl]piperazin-1-yl}-6-[3-(methylthio)phenyl] pyridazine] |
| > 6.00 | COc1ccc(-c2ccc(-c3ccc(N4CCN(CC(=O)N5CCN(C6CCC6)CC5)CC4)nn3)cc2)cc1 [Compound 1026, 3-{4-[2-(4-cyclobutylpiperazin-1-yl)-2-oxoethyl]piperazin-1-yl}-6-(4′-methoxybiphenyl-4-yl)pyridazine] |
| > 6.00 | COc1ccc(-c2ccc(N3CCN(CC(=O)N4CCN(C5CCC5)CC4)CC3)nn2)cc1F [Compound 1027, 3-{4-[2-(4-cyclobutylpiperazin-1-yl)-2-oxoethyl]piperazin-1-yl}-6-(3-fluoro-4-methoxyphenyl) pyridazine] |
| > 6.00 | COc1cc(F)c(-c2ccc(N3CCN(CC(=O)N4CCN(C5CCC5)CC4)CC3)nn2)cc1F [Compound 1028, 3-{4-[2-(4-cyclobutylpiperazin-1-yl)-2-oxoethyl]piperazin-1-yl}-6-(2,5-difluoro-4-methoxyphenyl) pyridazine] |
| > 6.00 | COc1ccc2cc(-c3ccc(N4CCN(CC(=O)N5CCN(C6CCC6)CC5)CC4)nn3)ccc2c1 [Compound 1029, 3-{4-[2-(4-cyclobutylpiperazin-1-yl)-2-oxoethyl]piperazin-1-yl}-6-(6-methoxy-2-naphthyl)pyridazine] |
